The values below come from article PMC3670040, “Structure of Lipid Kinase p110β/p85β Elucidates an Unusual SH2-Domain-Mediated Inhibitory Mechanism” (Molecular Cell, 2011).

Square brackets hold non-standard residues; d marks the D form. Ends that are not written are not given here. pY = N[C@@H](Cc1ccc(OP(=O)(O)O)cc1)C(=O)O

The subject of this assay is p110β/p85β-nicSH2. Description: [γ32P]-ATP nitrocellulose-binding assay of PIP3 production. In kind it is biochemical, mouse. The method, then: or absence of 10 μM PDGF bis-phosphopeptide. Reactions were carried out with 1 μCi [γ32P]-ATP per reaction, with 100 μM ATP and 1 mg/ml total “brain lipids” or 1.5 mM diC8-PIP2/POPS vesicles for 60 min. The vesicle compositions are indicated.
(B) Integrated intensities of the spots using the “brain liposomes” (left panel) or diC8-PIP2/POPS liposomes (Invitrogen) (right panel), quantitated with the ImageQuant software.
The bars represent standard deviations of the mean for two measurements. The hatched bars are for reactions in the presence of PDGF bis-phosphopeptide.
(C) SDS PAGE analysis of the proteins used for the assays in (A and B). Samples of 10 μl of […] protein solutions for each of the reaction were analyzed on a 4-12% NuPAGE Novex Bis-Tris gel in MES running buffer (Invitrogen). The upper band is the p110 subunit and the lower band is the regulatory subunit.
(D) Stereo view of the contacts between the p85β-cSH2 domain and the C-lobe of the kinase domain. The Tyr677-p85β (red) inserts into a hydrophobic groove between the two elbows kα7/kα8 (yellow) and kα11/kα12 (orange). Tyr677-p85β also makes a potential hydrogen bond with Ser1046-p110β (dashed black line).
To determine the effect of receptor tyrosine kinases (RTK) on PI3K activity, the assays were performed in absence or presence of 10 μM pY peptides:
7. Mm-PDGFR (pY2): ESDGG(pY)MDMSKDESID(pY)VPMLDMKGDIKYADIE (residues
10. Hs-PDGFR-pY740+5 position 5 mutated to P: DGG(pY)MDMSP
11. Hs-PDGFR-pY740+5 position 5 mutated to A: DGG(pY)MDMSA
12. Hs-PDGFR-pY740+5 position 5 mutated to S: DGG(pY)MDMSS
13. […]
The reactions were stopped by addition of 10 μl of stop/detection buffer (1X Stop & Detect Buffer B, 4 nM ADP Alexa633 Tracer, 109 μg/ml ADP2 antibody), followed by 1 h equilibration. Fluorescence polarization was measured on a PHERAStar plus HTS microplate reader (BMG Labtech), using a fluorescence polarization module with excitation centered at 633 nm and emission at 650 nm. […]
The PIP3 lipids produced in PI3K in vitro assays as described above were also measured by a mass-spectrometry based assay (Clark et al.). […]

For the substance “ESDGG[pY]MDMSKDESID[pY]VPMLDMKGDIKYADIE [pY2, bis-phosphopeptide (PDGFR 735–767, with pY740 and pY751)]”, under “p110β/p85β-nicSH2, 10 μM pY2, 1 mg/ml brain lipids (5% PIP2, 20% PS, 15% PC, 45% PE, 5% sphingomyelin, 10% cholesterol), 100 μM ATP, 60 min”, the “fold activation by pY2, PIP3 formation, brain lipids” value is 10 fold. Moreover, the “fold activation by pY2, PIP3 formation, diC8-PIP2/POPS liposomes” value (p110β/p85β-nicSH2, 10 μM pY2, 1.5 mM diC8-PIP2/POPS, 100 μM ATP, 60 min) is on record as 16 fold. For the same substance, the “effect on lipid kinase activity of p110β SH2-containing complexes, PIP3 formation” value (radioactive phosphorylation assay, Figures S2A–S2C) was “stimulates lipid kinase activity”.
